Among the data in PubChem BioAssay AID463199 (Broad Institute, 2010) are AC50 values, retold here.

Structures are written as SMILES. Active and inactive are the calls of the source.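 The calls were made as follows: active = AC50, the dose giving half-maximal effect, exceeds a fixed cutoff for a compound that rescues yeast growth under heat; inactive = the rest, inconclusive results apart.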

The experiment concerns S. cerevisiae Burl-1 ts mutant growth, BacTiter-Glo, 38.5C 24 h. Kind of experiment: restored growth of temperature-sensitive Burl-1 yeast – whole organism, S. cerevisiae, Burl-1 ts mutant, luminescence, counter-screen for SUMOylation pathway inhibitor project, dose response (AID 463199). For orientation: Counterscreens check selectivity or assay interference.
In the case of `Oc1c(Br)cc(Br)cc1/C=N/n1c(-c2ccccc2)n[nH]c1=S`, the AC50 (as a rule, the concentration giving half of the maximal activity seen) is > 42 µM (inactive).

Turning to `Cn1c(=O)nc2n(Cc3ccccc3)c3ccccc3cc-2c1=O`, the AC50 was > 42 µM (inactive).

Turning to `Cc1ccc(C(=O)c2cc([N+](=O)[O-])ccc2N2CCCCC2)cc1C`, the AC50 was > 42 µM (inactive).

For the molecule `N#CCSc1nc2c(c(C3CC=CCC3)c1C#N)CCC2` (configuration not stated), the AC50 was > 42 µM (inactive).

Consider `CCOC(=O)C1=C(C)NC(C)=C(C(=O)OCC)C1C(=O)OC1CCOC1=O` (configuration not stated), for which the AC50 is > 42 µM (inactive).

On to `O=C(CCNC(=O)c1ccc(Br)cc1)NCc1ccccc1F`, for which the AC50 was > 42 µM (inactive).

As for `CCOc1ccc(Br)cc1S(=O)(=O)N1CCC(C(N)=O)CC1`, the AC50 was > 42 µM (inactive).

For `Cc1ccc(C)c(OCCCC(=O)N2CCOCC2)c1`, the AC50 was > 42 µM (inactive).

On to `Nc1cc(=O)[nH]c(=O)n1CCc1ccccc1`, for which the AC50 is > 42 µM (inactive).

Turning to `COc1ccc(NC(=O)CCC(=O)Nc2nnc(C(F)(F)F)s2)c(OC)c1`, the AC50 is > 42 µM (inactive).

Take `Oc1cccc2ccc(/C=C/c3ccccc3Br)nc12`: the AC50 was > 42 µM (inactive).

For the molecule `O=c1cc(COc2ncnc3ccccc23)nc2sccn12`, the AC50 was > 42 µM (inactive).

As for `CCn1c(CSCc2ccc(F)cc2)nnc1SCC(=O)NCc1ccccc1`, the AC50 was > 42 µM (inactive).

As to `CN(C#N)c1nc(Cl)nc(Nc2cccc(Cl)c2)n1`, the AC50 was > 42 µM (inactive).

For the molecule `COC(=O)c1cn(C(=O)c2cccc3ccccc23)c2ccccc12`, the AC50 was > 42 µM (inactive).

As to `O=C(O)c1ccc(Cl)c(NCc2cccs2)c1`, the AC50 was > 42 µM (inactive).

In the case of `CCC(=O)N(Cc1ccc2c(c1)OCO2)Cc1cc2cc(OC)ccc2[nH]c1=O`, the AC50 was > 42 µM (inactive).

For `Cc1cc(C)n(CCOC(=O)C2C(C=C(Cl)Cl)C2(C)C)n1` (configuration not stated), the AC50 was > 42 µM (inactive).

With `O=C(O)c1cccc(NC(=O)c2cccc(S(=O)(=O)Nc3cccc([N+](=O)[O-])c3)c2)c1`, the AC50 is > 42 µM (inactive).

As to `COC(=O)c1sccc1NC(=S)N1CCCCC1`, the AC50 is > 42 µM (inactive).

For `COc1ccccc1N(CC(=O)NCC1CCCO1)C(=O)CCC(=O)Nc1cc(C)on1` (configuration not stated), the AC50 was > 42 µM (inactive).

Turning to `CC(=Nc1ccccc1)C1=C(O)CC(C)(C)CC1=O`, the AC50 was > 42 µM (inactive).

Take `O=C1NC(c2ccccc2)C(C(=O)c2cccs2)C(O)(C(F)(F)F)N1` (configuration not stated): the AC50 was > 42 µM (inactive).

In the case of `Cc1ccc2nc(N/N=C/c3ccccc3F)nc(-c3ccccc3)c2c1`, the AC50 was > 42 µM (inactive).

For `O=C(Nc1ccccc1N1CCN(c2ccccc2)CC1)c1cccc(F)c1`, the AC50 was > 42 µM (inactive).

In the case of `C/C(CC1(O)C(=O)Nc2ccccc21)=N\O` (configuration not stated), the AC50 is > 42 µM (inactive).

In the case of `COc1cccc(Nc2nc(C)nc3c2oc2ccccc23)c1`, the AC50 is > 42 µM (inactive).

`O=C(CCSc1ccccc1)NNC(=O)c1ccccc1F`: the AC50 was > 42 µM (inactive).

Turning to `OC1(c2ccc(F)cc2)CC2CCC(C1)N2Cc1nnnn1C1CCCCC1` (configuration not stated), the AC50 was > 42 µM (inactive).

As to `COc1ccc(CCNC(=O)Cn2nnc(-c3ccc(N4CCOCC4)cc3)n2)cc1OC`, the AC50 is > 42 µM (inactive).

As for `COc1ccc(-n2c(SCC(=O)NCC3CCCO3)nc3c(c2=O)SCC3)cc1OC` (configuration not stated), the AC50 is > 42 µM (inactive).

`O=C(O)C1C2CCC(O2)C1C(=O)NCCC1=CCCCC1` (configuration not stated): the AC50 was 13.6 µM.

`COc1ccc(CN2CCCCCC2)cc1`: the AC50 is > 42 µM (inactive).

In the case of `O=C(O)/C=C/c1cccnc1`, the AC50 was > 42 µM (inactive).

`Cc1cccc(CSc2ccc(-c3ccco3)nn2)c1`: the AC50 was > 42 µM (inactive).

`O=C(CN1C(=O)NC2(CCCC2)C1=O)Nc1nc2ccccc2[nH]1`: the AC50 is > 42 µM (inactive).

As for `COc1ccc(C)cc1NC(=S)N1CCN(c2ccccn2)CC1`, the AC50 was > 42 µM (inactive).

Regarding `Cc1cccc(OCc2nnc(SCC(=O)O)n2-c2ccccc2)c1`, the AC50 is > 42 µM (inactive).

Take `Cc1cc(C)cc(OCC(=O)NC2CCCc3ccccc32)c1` (configuration not stated): the AC50 was > 42 µM (inactive).

Turning to `CN1CCCC(n2nc(Cc3ccc(Cl)cc3)c3ccccc3c2=O)CC1` (configuration not stated), the AC50 was > 42 µM (inactive).

Take `Cc1ccc(NS(=O)(=O)c2ccc(NC(=O)C3CCCO3)cc2)cc1` (configuration not stated): the AC50 was > 42 µM (inactive).

As to `CN(C)c1ccc(C(=O)N2CCCC(CCC(=O)N3CCN(c4ccccn4)CC3)C2)cc1` (configuration not stated), the AC50 was > 42 µM (inactive).

For the molecule `COc1ccc(OC(=O)c2ccc(Cl)cc2)c(C(C)=O)c1`, the AC50 was > 42 µM (inactive).

Regarding `Cc1cccc(OCC(O)CN2C(C)(C)CC(O)CC2(C)C)c1` (configuration not stated), the AC50 was > 42 µM (inactive).

Regarding `CC(=O)N(C)c1ccc(N2CCOCC2)c2c1C(=O)c1ccccc1C2=O`, the AC50 is > 42 µM (inactive).

Regarding `N#C/C(=C/c1ccc(N2CCCCC2)o1)C(=O)Nc1ccc(Cl)cc1`, the AC50 was > 42 µM (inactive).

Take `COc1ccc(/C=C/C(=O)N2CCC(C(N)=O)CC2)cc1S(=O)(=O)N1CCOCC1`: the AC50 was > 42 µM (inactive).

As to `COc1ccccc1CC(=O)N1CCOCC1`, the AC50 was > 42 µM (inactive).

For the molecule `COc1ccc(/C=C2\SC(=S)N(CCCC(=O)Nc3cc(C)on3)C2=O)cc1OC`, the AC50 was > 42 µM (inactive).

Take `CCc1nc2ccc(C(=O)N3CCN(CC)CC3)cc2nc1CC`: the AC50 is > 42 µM (inactive).

In the case of `CCCC1Cc2c(sc3ncnc(N)c23)CO1` (configuration not stated), the AC50 was 9.15 µM.

Take `CCC1CCCCN1CCCNC(=O)C1CCC(CNS(=O)(=O)c2c(C)cc(C)cc2C)CC1` (configuration not stated): the AC50 was > 42 µM (inactive).

As for `O=C(COc1ccc(F)cc1Cl)N(Cc1nnc(-c2ccccc2Cl)o1)C1CC1`, the AC50 is > 42 µM (inactive).

With `CNC(=O)c1ccccc1NC(=O)c1c(O)c2c([nH]c1=O)CCCC2`, the AC50 was > 42 µM (inactive).

Take `O=C(NC1CCCCCC1)C1CCN(S(=O)(=O)c2cccc3cccnc23)CC1`: the AC50 is > 42 µM (inactive).

As to `O=C(NC1CCCCC1)c1ccc2snnc2c1`, the AC50 is > 42 µM (inactive).

Turning to `COCC(=O)n1nc(-c2ccc(Cl)cc2)nc1NCc1ccc(F)cc1`, the AC50 is > 42 µM (inactive).

Take `O=C(N/N=C/C(Br)=C/c1ccccc1)c1cccnc1`: the AC50 was > 42 µM (inactive).

For the molecule `Cc1cc(C)c(NC(=O)CCN2CCN(Cc3ccccc3)CC2)c(C)c1`, the AC50 is > 42 µM (inactive).

On to `COc1ccc(/C=C(\C#N)C(=O)NCCCn2ccnc2)cc1`, for which the AC50 was > 42 µM (inactive).

For `COC(=O)c1sc2ccccc2c1NC(=O)c1ccc(S(=O)(=O)N2CCCC(C)C2)cc1` (configuration not stated), the AC50 is > 42 µM (inactive).

`O=C(COC(=O)COc1ccccc1Cl)Nc1ccccc1OC(F)F`: the AC50 was > 42 µM (inactive).

Take `O=C(c1cccs1)N(C(=O)c1cccs1)c1ccc(Br)cn1`: the AC50 is > 42 µM (inactive).

Take `CCN(CC)c1ncnc2ccc(Br)cc12`: the AC50 is > 42 µM (inactive).

`Cc1cccc(NC(=S)NC(=O)/C=C/c2ccco2)c1`: the AC50 is > 42 µM (inactive).

Regarding `CCn1c(SCC(=O)OC)nnc1-c1ccncc1`, the AC50 is > 42 µM (inactive).

Turning to `CNC(=O)Nc1cc(NC(=O)NC)cc(C(F)(F)F)c1`, the AC50 is > 42 µM (inactive).

Turning to `c1ccc(CNc2ccc3ccccc3n2)nc1`, the AC50 is > 42 µM (inactive).

`N#Cc1ccc(Oc2ccc(S(=O)(=O)N3CCCCC3)cn2)cc1`: the AC50 was > 42 µM (inactive).

For the molecule `Cc1c(C(=O)NC(C)C)oc2c1-c1[nH]ncc1CC2`, the AC50 was > 42 µM (inactive).

Turning to `CCCC(=O)Nc1ccc(Sc2ccc([N+](=O)[O-])cc2)cc1`, the AC50 is > 42 µM (inactive).

As to `CC(C)CNc1cc(=O)n(C)c(=O)n1C`, the AC50 is > 42 µM (inactive).

On to `CCCCCC(=O)Nc1nnn(CCC)n1`, for which the AC50 was > 42 µM (inactive).

Turning to `OC(c1ccccc1)(C1CCCCC1)C(CN1CCOCC1)c1ccccc1` (configuration not stated), the AC50 was > 42 µM (inactive).

As to `OCCN1CN=C(Nc2nc3ccccc3o2)NC1`, the AC50 was > 42 µM (inactive).

Consider `CCN(CC)CCCNC(=O)C1c2ccccc2C(=O)N(CCOC)C1c1ccc(F)cc1` (configuration not stated), for which the AC50 is > 21 µM (inactive).

In the case of `COc1ccc(Nc2oc(-c3cccs3)nc2C#N)cc1`, the AC50 is > 42 µM (inactive).

With `COCCN(C(=O)C1CC1)c1nnc(-c2ccc(C)cc2)s1`, the AC50 was > 42 µM (inactive).

With `Nc1ccc(Oc2ccccc2-c2ccccc2)cc1`, the AC50 is > 42 µM (inactive).

For the molecule `CC1(OC(=O)CCc2ccccc2)C(=O)C=C2C=C(c3ccc(C#N)cc3)N(CC3CC3)C=C2C1=O` (configuration not stated), the AC50 was > 42 µM (inactive).

On to `COc1cc(S(=O)(=O)N2CCN(c3ccccc3)CC2)ccc1F`, for which the AC50 was > 42 µM (inactive).

For `COc1ccc2nc(NC(=O)c3cc(S(=O)(=O)N4CCOCC4)ccc3C)sc2c1`, the AC50 is > 42 µM (inactive).

For `Cc1ccc(Oc2ccc(OCC(=O)Nc3ccncc3)cc2)cc1`, the AC50 was > 42 µM (inactive).

For `Cc1ccc(C)n1-c1ccc(N(C)C)cc1`, the AC50 was > 42 µM (inactive).

As for `CC(C)(C)c1ccc(C(=O)NCCC(=O)N2CCN(c3ncccn3)CC2)cc1`, the AC50 was > 42 µM (inactive).

On to `Cc1cc(-c2nnc3sc(C4CCCCC4)nn23)n[nH]1`, for which the AC50 is > 42 µM (inactive).

For `COc1nc(OC)nc(N2CCC(C(=O)NC3CCCCCC3)CC2)n1`, the AC50 was > 42 µM (inactive).

As to `CCCNCC(O)COc1ccccc1C(=O)CCc1ccccc1` (configuration not stated), the AC50 was > 42 µM (inactive).

Take `C/C(=N\NC(=S)Nc1ccccc1)C1Cc2ccccc2C(=O)O1` (configuration not stated): the AC50 is > 42 µM (inactive).

Turning to `COc1cc(C(=O)OCC(=O)NC(C)CCc2ccccc2)cc(OC)c1OC` (configuration not stated), the AC50 is > 42 µM (inactive).

For `CCCCC(=O)N/N=C(\C)CC(=O)Nc1cc(Cl)ccc1OC`, the AC50 is > 42 µM (inactive).

As to `CCOC(=O)c1c(C)[nH]c(O)c1C=Nc1ccccc1`, the AC50 was > 42 µM (inactive).
